Laboratory results from article PMC3666173 (Basic research in cardiology, 2012).
pIC50: −log10 of the molar value. No end group written: not given here.

Legend:
[1] = test system: pannexin-1 (Panx1) hemichannels (C6-Panx1 cells); test: High [K+]e-triggered ATP release in C6-Panx1 cells; assay type: cell-based; details: [K+]e = 143 mM, carbenoxolone 10 μM, 30 min, 10Panx1 200 μM
[2] = target: Cx43 hemichannels (C6-Cx43 cells) (Homo sapiens, UniProt P17302); test: [Ca2+]i-triggered; assay type: cell-based
[3] = test system: C6-Cx43 cells; details: A23187 2.2 μM, 5 min; ref [19], [49]; cited from earlier work

Cx43 hemichannels (C6-Cx43 cells), sequence (P17302 whole entry): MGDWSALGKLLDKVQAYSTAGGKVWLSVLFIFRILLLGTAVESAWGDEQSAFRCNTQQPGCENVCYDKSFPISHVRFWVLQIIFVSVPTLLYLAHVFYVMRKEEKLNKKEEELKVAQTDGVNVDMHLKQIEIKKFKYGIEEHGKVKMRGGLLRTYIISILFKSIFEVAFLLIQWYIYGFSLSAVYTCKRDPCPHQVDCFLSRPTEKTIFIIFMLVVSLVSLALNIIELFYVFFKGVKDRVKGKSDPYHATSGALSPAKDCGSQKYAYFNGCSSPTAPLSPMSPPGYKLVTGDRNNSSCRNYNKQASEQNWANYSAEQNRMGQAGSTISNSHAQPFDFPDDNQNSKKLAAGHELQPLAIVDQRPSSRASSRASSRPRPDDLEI

CC1(C)[C@@H](OC(=O)CCC(=O)O)CC[C@]2(C)[C@H]3C(=O)C=C4[C@@H]5C[C@@](C)(C(=O)O)CC[C@]5(C)CC[C@@]4(C)[C@]3(C)CC[C@@H]12 [carbenoxolone]
high [K+]e-triggered ATP release ([1]; n = 12): suppressed | high [K+]e-triggered ATP release ([1]; n = 12, listed as Cbx): blocked

CNc1ccc2oc(C[C@H]3O[C@@]4(CC[C@H]3C)O[C@H]([C@H](C)C(=O)c3ccc[nH]3)[C@H](C)C[C@H]4C)nc2c1C(=O)O [A23187]
[Ca2+]i-triggered ATP release ([2]; Ca2+ ionophore, 2.2 μM, 5 min, C6-Cx43 vs C6-pLTR, n = 12): triggered significant ATP release in C6-Cx43 but not in C6 cells stably transfected with the empty vector | transient elevation of [Ca2+]i [3]: ~ 500 nM

YGRKKRRQRRRKQIEIKKFK
pIC50 [2]: ~5.15
